Measured values: patent publication US10513521B2, “Compositions and methods for inhibiting BMP” (The Brigham and Women's Hospital, Inc., priority 2014, dated 2019)
Like-named read-outs stand apart in the source and are kept apart here.

Experiments:
ALK6 = ALK6 (Homo sapiens, UniProt O00238); assay: TR-FRET enzymatic ALK kinase assay, ALK6
Procedure: (§1) Briefly, the ALKs enzymatic assay was initiated by dispense 2.5 μl enzyme in 1× kinase reaction buffer. The assay plate was then added with compounds followed by incubation at room temperature for 10 minutes. Then 2.5 μl/well substrate was added.

ALK4 = biological target: T1, ALK4 (Homo sapiens, UniProt P36896); assay: TR-FRET enzymatic ALK kinase assay, ALK4
T1 sequence (P36896 24-505): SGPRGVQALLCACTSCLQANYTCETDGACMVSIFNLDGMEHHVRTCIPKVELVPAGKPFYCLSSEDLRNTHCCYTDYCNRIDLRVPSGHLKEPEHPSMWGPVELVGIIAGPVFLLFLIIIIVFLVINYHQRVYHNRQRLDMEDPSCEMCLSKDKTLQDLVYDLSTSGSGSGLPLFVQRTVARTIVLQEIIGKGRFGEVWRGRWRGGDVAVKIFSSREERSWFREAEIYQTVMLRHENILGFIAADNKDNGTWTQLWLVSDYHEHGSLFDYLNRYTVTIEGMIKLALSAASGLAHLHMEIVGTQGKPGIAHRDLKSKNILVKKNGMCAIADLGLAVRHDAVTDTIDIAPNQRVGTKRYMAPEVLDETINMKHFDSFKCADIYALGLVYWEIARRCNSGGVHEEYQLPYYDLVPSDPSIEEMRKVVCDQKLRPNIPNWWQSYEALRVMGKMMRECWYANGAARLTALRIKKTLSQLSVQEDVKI
Procedure: as §1

ALK1 = ALK1 (Homo sapiens, UniProt P37023); assay: TR-FRET enzymatic ALK kinase assay, ALK1
Procedure: as §1

ALK3 = ALK3 (Homo sapiens, UniProt P36894); assay: TR-FRET enzymatic ALK kinase assay, ALK3
Procedure: as §1

ALK2 = biological target: T2, ALK2 (Homo sapiens, UniProt Q04771); assay: TR-FRET enzymatic ALK kinase assay, ALK2
T2 sequence (Q04771 21-509): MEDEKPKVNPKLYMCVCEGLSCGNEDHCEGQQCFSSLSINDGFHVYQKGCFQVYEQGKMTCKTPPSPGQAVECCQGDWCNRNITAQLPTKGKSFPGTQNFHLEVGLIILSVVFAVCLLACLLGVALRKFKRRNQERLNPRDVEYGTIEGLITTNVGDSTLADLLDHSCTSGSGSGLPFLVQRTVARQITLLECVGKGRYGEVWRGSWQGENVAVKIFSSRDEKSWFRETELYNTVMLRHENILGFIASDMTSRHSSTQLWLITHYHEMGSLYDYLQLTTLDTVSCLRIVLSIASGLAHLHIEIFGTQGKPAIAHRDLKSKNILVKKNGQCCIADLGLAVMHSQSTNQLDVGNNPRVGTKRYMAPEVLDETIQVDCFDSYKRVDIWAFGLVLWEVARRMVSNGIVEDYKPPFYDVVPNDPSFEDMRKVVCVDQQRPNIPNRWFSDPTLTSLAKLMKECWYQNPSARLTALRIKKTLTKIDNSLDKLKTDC
Procedure: as §1

ALK5 = biological target: T3, ALK5 (Homo sapiens, UniProt P36897); assay: TR-FRET enzymatic ALK kinase assay, ALK5
T3 sequence (P36897 34-503): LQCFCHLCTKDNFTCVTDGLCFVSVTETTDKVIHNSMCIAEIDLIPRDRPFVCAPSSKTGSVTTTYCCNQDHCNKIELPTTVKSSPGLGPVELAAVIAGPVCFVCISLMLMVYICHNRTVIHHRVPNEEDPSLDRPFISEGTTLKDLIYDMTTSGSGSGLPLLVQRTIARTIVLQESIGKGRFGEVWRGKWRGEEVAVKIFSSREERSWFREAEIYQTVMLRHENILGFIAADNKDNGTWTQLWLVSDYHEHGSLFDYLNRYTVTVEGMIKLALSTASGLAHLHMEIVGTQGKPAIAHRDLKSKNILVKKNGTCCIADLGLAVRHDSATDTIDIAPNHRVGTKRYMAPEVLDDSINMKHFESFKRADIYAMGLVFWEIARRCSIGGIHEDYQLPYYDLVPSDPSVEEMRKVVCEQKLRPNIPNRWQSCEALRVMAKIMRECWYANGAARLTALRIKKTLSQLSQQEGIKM
Procedure: Six ALK kinase enzyme assays were developed for determination of compound activities on ALK1, ALK2, ALK3, ALK4, ALK5 and ALK6.
as §1

Sequence of ALK3 (P36894 24-532): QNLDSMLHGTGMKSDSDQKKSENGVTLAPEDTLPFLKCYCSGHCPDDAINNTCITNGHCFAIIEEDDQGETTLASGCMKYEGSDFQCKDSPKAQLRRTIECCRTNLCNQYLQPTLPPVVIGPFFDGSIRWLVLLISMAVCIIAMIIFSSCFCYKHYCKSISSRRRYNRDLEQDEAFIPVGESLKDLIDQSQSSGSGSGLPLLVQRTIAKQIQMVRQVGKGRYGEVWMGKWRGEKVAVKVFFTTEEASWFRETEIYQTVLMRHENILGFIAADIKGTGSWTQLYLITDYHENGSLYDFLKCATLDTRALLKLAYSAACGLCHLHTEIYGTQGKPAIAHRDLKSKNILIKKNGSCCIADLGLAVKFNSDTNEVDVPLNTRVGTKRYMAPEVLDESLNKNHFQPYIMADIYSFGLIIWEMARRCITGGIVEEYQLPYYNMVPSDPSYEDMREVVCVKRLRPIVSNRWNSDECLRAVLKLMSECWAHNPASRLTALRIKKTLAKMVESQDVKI
Sequence of ALK6 (O00238 14-502): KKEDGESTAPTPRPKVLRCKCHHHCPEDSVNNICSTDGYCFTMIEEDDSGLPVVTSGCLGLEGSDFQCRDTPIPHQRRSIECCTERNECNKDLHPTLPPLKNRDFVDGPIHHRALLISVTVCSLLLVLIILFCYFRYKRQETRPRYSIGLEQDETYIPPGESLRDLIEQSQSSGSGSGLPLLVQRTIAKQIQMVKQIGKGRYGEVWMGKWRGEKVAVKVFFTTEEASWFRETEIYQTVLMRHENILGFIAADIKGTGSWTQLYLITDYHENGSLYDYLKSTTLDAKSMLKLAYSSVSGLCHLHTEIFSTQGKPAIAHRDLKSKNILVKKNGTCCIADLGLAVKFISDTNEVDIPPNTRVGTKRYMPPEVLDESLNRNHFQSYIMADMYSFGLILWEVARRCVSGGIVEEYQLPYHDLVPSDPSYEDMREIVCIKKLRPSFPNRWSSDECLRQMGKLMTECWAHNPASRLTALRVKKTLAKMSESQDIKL
Sequence of ALK1 (P37023 22-503): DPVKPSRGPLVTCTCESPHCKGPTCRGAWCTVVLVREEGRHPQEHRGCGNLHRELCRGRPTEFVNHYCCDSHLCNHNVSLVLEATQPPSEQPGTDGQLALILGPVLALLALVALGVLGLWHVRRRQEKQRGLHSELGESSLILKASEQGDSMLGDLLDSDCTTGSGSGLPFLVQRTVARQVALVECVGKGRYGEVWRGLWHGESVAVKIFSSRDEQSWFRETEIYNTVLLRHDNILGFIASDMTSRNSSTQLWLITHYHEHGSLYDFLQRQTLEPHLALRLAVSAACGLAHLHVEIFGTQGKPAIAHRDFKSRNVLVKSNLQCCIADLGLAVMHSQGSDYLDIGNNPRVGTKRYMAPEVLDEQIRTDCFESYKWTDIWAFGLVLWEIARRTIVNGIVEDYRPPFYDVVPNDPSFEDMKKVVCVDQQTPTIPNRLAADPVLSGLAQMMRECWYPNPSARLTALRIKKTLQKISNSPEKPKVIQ

| Molecule | IC50 (ALK6) | IC50 (ALK4) | IC50 (ALK1) | IC50 (ALK3) | IC50 (ALK2) | IC50 (ALK5) | IC50 (ALK6; read-out: Kinase Assay ALK6, enzyme assay) | IC50 (ALK4; read-out: Kinase Assay ALK4, enzyme assay) | IC50 (ALK1; read-out: Kinase Assay ALK1, enzyme assay) | IC50 (ALK3; read-out: Kinase Assay ALK3, enzyme assay) | IC50 (ALK2; read-out: Kinase Assay ALK2, enzyme assay) | IC50 (ALK5; read-out: Kinase Assay ALK5, enzyme assay) |
| --- | --- | --- | --- | --- | --- | --- | --- | --- | --- | --- | --- | --- |
| NC1(c2ccc(-c3cnc4c(-c5ccc(S(N)(=O)=O)c6ccccc56)cnn4c3)cc2)CC1 [Compound 192, 4-(6-(4-(1-aminocyclopropyl)phenyl)pyrazolo[1,5-a]pyrimidin-3-yl)naphthalene-1-sulfonamide] | > 10000 nM | > 10000 nM | 650 nM | 4800 nM | 50 nM | > 10000 nM |  |  |  |  |  |  |
| C[C@@H]1CNC[C@H](C)N1c1ccc(-c2cnc3c(-c4cc(C(F)(F)F)cc(S(C)(=O)=O)c4)cnn3c2)cc1 [Compound 193, 6-(4-((2R,6S)-2,6-dimethylpiperazin-1-yl)phenyl)-3-(3-(methylsulfonyl)-5-(trifluoromethyl)phenyl)pyrazolo[1,5-a]pyrimidine] | 1200 nM | > 10000 nM | 7500 nM | > 10000 nM | 550 nM | > 10000 nM |  |  |  |  |  |  |
| CS(=O)(=O)c1cccc(-c2cnn3cc(-c4ccc(OC5(CN6CCC(O)CC6)CC5)cc4)cnc23)c1 [Compound 194, 1-((1-(4-(3-(3-(methylsulfonyl)phenyl)pyrazolo[1,5-a]pyrimidin-6-yl)phenoxy)cyclopropyl)methyl)piperidin-4-ol] | > 10000 nM | > 10000 nM | 230 nM | 870 nM | 20 nM | > 10000 nM |  |  |  |  |  |  |
| CS(=O)(=O)c1cccc(-c2cnn3cc(-c4ccc(OC5(CN6CCC(O)C6)CC5)cc4)cnc23)c1 (stereo not drawn) [Compound 195, 1-((1-(4-(3-(3-(methylsulfonyl)phenyl)pyrazolo[1,5-a]pyrimidin-6-yl)phenoxy)cyclopropyl)methyl)pyrrolidin-3-ol] | > 10000 nM | > 10000 nM | 270 nM | 970 nM | 22 nM | > 10000 nM |  |  |  |  |  |  |
| C[C@H](O)c1cccc(-c2cnn3cc(-c4ccc(OC5(CN6C7CCC6CC7)CC5)cc4)cnc23)c1 [Compound 196, (S)-1-(3-(6-(4-(1-(7-azabicyclo[2.2.1]heptan-7-ylmethyl)cyclopropoxy)phenyl)pyrazolo[1,5-a]pyrimidin-3-yl)phenyl)ethanol] | 8900 nM | > 10000 nM | 310 nM | 2500 nM | 24 nM | > 10000 nM |  |  |  |  |  |  |
| C[C@H](O)c1cccc(-c2cnn3cc(-c4ccc(OC5(CN6CCC7(CC6)CNC7)CC5)cc4)cnc23)c1 [Compound 197, (S)-1-(3-(6-(4-(1-(2,7-diazaspiro[3.5]nonan-7-ylmethyl)cyclopropoxy)phenyl)pyrazolo[1,5-a]pyrimidin-3-yl)phenyl)ethanol] | > 10000 nM | > 10000 nM | 500 nM | 2000 nM | 52 nM | > 10000 nM |  |  |  |  |  |  |
| C[C@H](O)c1cccc(-c2cnn3cc(-c4ccc(OC5(CN6CCCC6)CC5)cc4)cnc23)c1 [Compound 198, (S)-1-(3-(6-(4-(1-(pyrrolidin-1-ylmethyl)cyclopropoxy)phenyl)pyrazolo[1,5-a]pyrimidin-3-yl)phenyl)ethanol] | > 10000 nM | > 10000 nM | 710 nM | 1200 nM | 30 nM | > 10000 nM |  |  |  |  |  |  |
| C[C@H](O)c1cccc(-c2cnn3cc(-c4ccc(OC5(CN6CCCCC6)CC5)cc4)cnc23)c1 [Compound 199, (S)-1-(3-(6-(4-(1-(piperidin-1-ylmethyl)cyclopropoxy)phenyl)pyrazolo[1,5-a]pyrimidin-3-yl)phenyl)ethanol] | 9800 nM | > 10000 nM | 610 nM | 620 nM | 25 nM | > 10000 nM |  |  |  |  |  |  |
| C[C@H](O)c1cccc(-c2cnn3cc(-c4ccc(OCCN5CCCC5)cc4)cnc23)c1 [Compound 200, (S)-1-(3-(6-(4-(2-(pyrrolidin-1-yl)ethoxy)phenyl)pyrazolo[1,5-a]pyrimidin-3-yl)phenyl)ethanol] | 2300 nM | > 10000 nM | 1300 nM | 1200 nM | 68 nM | > 10000 nM |  |  |  |  |  |  |
| C[C@H](O)c1cccc(-c2cnn3cc(-c4ccc(OCCN5CCCCC5)cc4)cnc23)c1 [Compound 201, (S)-1-(3-(6-(4-(2-(piperidin-1-yl)ethoxy)phenyl)pyrazolo[1,5-a]pyrimidin-3-yl)phenyl)ethanol] | > 10000 nM | > 10000 nM | 1000 nM | 1000 nM | 43 nM | > 10000 nM |  |  |  |  |  |  |
| NS(=O)(=O)c1ccc(-c2cnn3cc(-c4ccc(OC(F)(F)CN5CCCCC5)cc4)cnc23)c2ccccc12 [Compound 206, 4-(6-(4-(1,1-difluoro-2-(piperidin-1-yl)ethoxy)phenyl)pyrazolo[1,5-a]pyrimidin-3-yl)naphthalene-1-sulfonamide] | > 10000 nM | > 10000 nM | 4600 nM | > 10000 nM | 1200 nM | > 10000 nM |  |  |  |  |  |  |
| NS(=O)(=O)c1ccc(-c2cnn3cc(-c4ccc(OC5(CN6CCCC6)CC5)cc4)cnc23)c2ccccc12 [Compound 207, 4-(6-(4-(1-(pyrrolidin-1-ylmethyl)cyclopropoxy)phenyl)pyrazolo[1,5-a]pyrimidin-3-yl)naphthalene-1-sulfonamide] | > 10000 nM | > 10000 nM | 170 nM | > 10000 nM | 16 nM | > 10000 nM |  |  |  |  |  |  |
| NS(=O)(=O)c1ccc(-c2cnn3cc(-c4ccc(OC5(CN6CCCCC6)CC5)cc4)cnc23)c2ccccc12 [Compound 208, 4-(6-(4-(1-(piperidin-1-ylmethyl)cyclopropoxy)phenyl)pyrazolo[1,5-a]pyrimidin-3-yl)naphthalene-1-sulfonamide] | > 10000 nM | > 10000 nM | 200 nM | > 10000 nM | 15 nM | > 10000 nM |  |  |  |  |  |  |
| NC1(c2ccc(-c3cnc4c(-c5ccc(S(N)(=O)=O)c6ccccc56)cnn4c3)cc2)CNC1 [Compound 209, 4-(6-(4-(3-aminoazetidin-3-yl)phenyl)pyrazolo[1,5-a]pyrimidin-3-yl)naphthalene-1-sulfonamide] | > 10000 nM | > 10000 nM | 340 nM | > 10000 nM | 69 nM | > 10000 nM |  |  |  |  |  |  |
| (3R)-1-((1-(4-(3-(3-(1-amino-2,2,2-trifluoroethyl)phenyl)pyrazolo[1,5-a]pyrimidin-6-yl)phenoxy)cyclopropyl)methyl)-3-methylpyrrolidin-3-ol [Compound 185] |  |  |  |  |  |  | > 10000 nM | > 10000 nM | 540 nM | 1800 nM | 44 nM | > 10000 nM |
